In patent publication US20230407243A1, “GENETIC PLATFORM TO INVESTIGATE THE FUNCTIONS OF BACTERIAL DRUG EFFLUX PUMPS” (priority 2022, published 2023):
Read-outs that look alike come from different tables or passages of the source.

Columns and labels:
Format in all cases: cell-based, Escherichia coli
[1] = system: wild-type E. coli K-12 str. BW25113; test: microbe, parasite or virus in culture; conditions: Escherichia coli, BW25113, technical duplicate
Outline: (§1)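 Overnight LB cultures resuspended in PBS to OD600 ~1.0, diluted 1/2000 into MHB II, and added to 2-fold serial compound dilutions in duplicate with DMSO controls. Incubated 18 h at 37° C. with 900 rpm shaking; OD600 read before and after, background subtracted, to derive MIC.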

E. coli ΔtolC = test: microbe, parasite or virus in culture
Outline: as §1

E. coli EKO-35 = test: microbe, parasite or virus in culture; conditions: for MIC: Escherichia coli, EKO35, technical duplicate
Outline: as §1

EKO-35-Pore = test: MIC susceptibility profiling, porinated strain; conditions: for MIC: Escherichia coli, technical duplicate
Outline: (§2)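 MIC values come from background-corrected OD600 readings (pre-incubation OD subtracted) after 18 h at 37 °C and 900 rpm in MHB II. Compounds were tested in duplicate as 2-fold dilutions. The inoculum came from 18 h LB cultures adjusted to OD600 ~1.0 and diluted 1/2000, and the pore-bearing strains were vancomycin-checked beforehand.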

EKO-35 araC::mexCD Pore = test: MIC susceptibility profiling, porinated efflux platform
Outline: as §2

EKO-35 araC::emrKY Pore = test: as above; conditions: EKO-35 araC::emrKY Pore compared to EKO-35-Pore
Outline: as §2

EKO-35 araC::acrEF Pore = test: as above; conditions: EKO-35 araC::acrEF Pore compared to EKO-35-Pore
Outline: as §2

EKO-35 araC::mdtBC Pore = test: as above
Outline: as §2

[2] = system: EKO-35 araC::acrBD408A Pore; test: as above
Outline: as §2

EKO-35 araC::emrAB Pore = test: as above; conditions: EKO-35 araC::emrAB Pore compared to EKO-35-Pore
Outline: as §2

EKO-35 araC::mdtEF Pore = test: as above
Outline: as §2

EKO-35 araC::acrB Pore = test: as above; conditions: EKO-35 araC::acr-B Pore compared to EKO-35-Pore
Outline: as §2

EKO-35 araC::macAB Pore = test: as above
Outline: as §2

EKO-35 araC::acrD Pore = test: as above; conditions: EKO-35 araC::acrD Pore compared to EKO-35-Pore
Outline: as §2

wild-type (WT) K-12-Pore = test: microbe, parasite or virus in culture; conditions: Escherichia coli, technical duplicate
Outline: as §2

ΔtolC-Pore = test: microbe, parasite or virus in culture
Outline: as §2

EKO-35 araC::acrEF = test: MIC susceptibility profiling, efflux platform
Outline: as §1

EKO-35 araC::macAB = test: MIC susceptibility profiling, efflux platform
Outline: as §1

EKO-35 araC::emrAB = test: MIC susceptibility profiling, efflux platform
Outline: as §1

CN[C@H](CC(C)C)C(=O)N[C@H]1C(=O)N[C@@H](CC(N)=O)C(=O)N[C@H]2C(=O)N[C@H]3C(=O)N[C@H](C(=O)N[C@H](C(=O)O)c4cc(O)cc(O)c4-c4cc3ccc4O)[C@H](O)c3ccc(c(Cl)c3)Oc3cc2cc(c3O[C@@H]2O[C@H](CO)[C@@H](O)[C@H](O)[C@H]2O[C@H]2C[C@](C)(N)[C@H](O)[C@H](C)O2)Oc2ccc(cc2Cl)[C@H]1O [vancomycin]
MIC ([1]; Table 10, without pore, read-out: Minimum inhibitory concentration (MIC), K-12): 200 µg/mL | MIC ([1]; Table 13A, non-porinated, read-out: Minimum Inhibitory Concentration, K-12): 200 µg/mL | MIC (E. coli ΔtolC; Escherichia coli, 18 h, read-out: Minimum Inhibitory Concentration, ΔtolC): 200 µg/mL | Minimum inhibitory concentration (MIC), ΔtolC (E. coli ΔtolC; Table 10, without pore, technical duplicate): 200 µg/mL | Fold change of MICs (E. coli EKO-35; EKO-35 compared to EKO-35 (reference)): 1 fold | MIC (E. coli EKO-35; Table 10, without pore, read-out: Minimum inhibitory concentration (MIC), EKO-35): 200 µg/mL | MIC (E. coli EKO-35; Table 13A, non-porinated, read-out: Minimum Inhibitory Concentration, EKO-35): 200 µg/mL | Fold changes of MICs (EKO-35-Pore; EKO-35-Pore compared to EKO-35-Pore (reference)): 1 fold | MIC (EKO-35-Pore; Table 10, with pore, read-out: Minimum inhibitory concentration (MIC), Pore EKO-35): 6.25 µg/mL | MIC (EKO-35-Pore; Table 14A, porinated, read-out: Minimum inhibitory concentration, EKO-35-Pore): 6.25 µg/mL | Fold changes of MICs (EKO-35 araC::mexCD Pore; EKO-35 araC::mexCD Pore compared to EKO-35-Pore): 1 fold | MIC (EKO-35 araC::mexCD Pore; Escherichia coli, EKO-35 araC::mexCD Pore, technical duplicate, read-out: Minimum inhibitory concentration): 6.25 µg/mL | Fold changes of MICs (EKO-35 araC::emrKY Pore): 1 fold | Fold changes of MICs (EKO-35 araC::acrEF Pore): 1 fold | Fold changes of MICs (EKO-35 araC::mdtBC Pore; EKO-35 araC::mdtBC Pore compared to EKO-35-Pore): 0 fold | MIC (EKO-35 araC::mdtBC Pore; Escherichia coli, EKO-35 araC::mdtBC Pore, technical duplicate, read-out: Minimum inhibitory concentration): 1.56 µg/mL | Fold changes of MICs ([2]; EKO-35 araC::acrBD408A Pore compared to EKO-35-Pore): 1 fold | MIC ([2]; Escherichia coli, EKO-35 araC::acrBD408A Pore, technical duplicate, read-out: Minimum inhibitory concentration): 6.25 µg/mL | Fold changes of MICs (EKO-35 araC::emrAB Pore): 1 fold | Fold changes of MICs (EKO-35 araC::mdtEF Pore; EKO-35 araC::mdtEF Pore compared to EKO-35-Pore): 1 fold | MIC (EKO-35 araC::mdtEF Pore; Escherichia coli, Table 14A, porinated, technical duplicate, read-out: Minimum inhibitory concentration, EKO-35 araC::mdtEF Pore): 6.25 µg/mL | Fold changes of MICs (EKO-35 araC::acrB Pore): 1 fold | Fold changes of MICs (EKO-35 araC::macAB Pore; EKO-35 araC::macAB Pore compared to EKO-35-Pore): 1 fold | MIC (EKO-35 araC::macAB Pore; Escherichia coli, EKO-35 araC::macAB Pore, technical duplicate, read-out: Minimum inhibitory concentration): 6.25 µg/mL | Fold changes of MICs (EKO-35 araC::acrD Pore): 1 fold | MIC (wild-type (WT) K-12-Pore; Table 10, with pore, read-out: Minimum inhibitory concentration (MIC), Pore K-12): 3.12 µg/mL | MIC (wild-type (WT) K-12-Pore; Table 14A, porinated, read-out: Minimum inhibitory concentration, K-12 (WT)-Pore): 3.12 µg/mL | MIC (ΔtolC-Pore; Escherichia coli, 18 h, read-out: Minimum inhibitory concentration, ΔtolC-Pore): 6.25 µg/mL | Minimum inhibitory concentration (MIC), Pore ΔtolC (ΔtolC-Pore; Table 10, with pore, technical duplicate): 6.25 µg/mL | Fold change of MICs (EKO-35 araC::acrEF; EKO-35 araC::acrEF compared to EKO-35): 1 fold | MIC (EKO-35 araC::acrEF; Escherichia coli, Table 13A, non-porinated, technical duplicate, read-out: Minimum Inhibitory Concentration, EKO-35 araC::acrEF): 200 µg/mL | Fold change of MICs (EKO-35 araC::macAB; EKO-35 araC::macAB compared to EKO-35): 1 fold | MIC (EKO-35 araC::macAB; Escherichia coli, Table 13B, non-porinated, technical duplicate, read-out: Minimum Inhibitory Concentration, EKO-35 araC::macAB): 200 µg/mL | Fold change of MICs (EKO-35 araC::emrAB; EKO-35 araC::emrAB compared to EKO-35): 1 fold | MIC (EKO-35 araC::emrAB; Escherichia coli, Table 13B, non-porinated, technical duplicate, read-out: Minimum Inhibitory Concentration, EKO-35 araC::emrAB): 200 µg/mL
